Earlier results on 122 compounds are cited in the CATMoS acute toxicity set (Mansouri et al. 2021).

Molecules are shown by their SMILES. Values joined by “and” are separate entries in the source; they are usually repeats but may differ in a detail not shown here. Equal values may be shown once.

This series is described as follows: rat acute oral toxicity. To be noted: in vivo.
Turning to `O=[N+]([O-])c1ccc([C@@H](O)[C@@H]2COC(C(Cl)Cl)=N2)cc1`, the LD50 (commonly the dose at which mortality reaches 50%) is 6000 mg/kg.
For `CN(C)c1ccc(N=Nc2ccccc2)cc1`, the LD50 is 200 mg/kg.
`CC(C)(C)NC(=O)[C@H]1CC[C@H]2[C@@H]3CC[C@H]4NC(=O)C=C[C@]4(C)[C@H]3CC[C@]12C`: the LD50 is 418 mg/kg.
As for `CN(C)C(=O)CCNc1ccc(Br)cc1`, the LD50 was 1810 mg/kg.
For `C=CC=NNc1ccccc1`, the LD50 is 700 mg/kg.
Consider `CCOC(=O)c1c(C)cc2c(CO)n[nH]c(=O)c2c1C`, for which the LD50 is 1750 mg/kg.
For the compound `CCC(O)(CC)c1[nH]ncc1Cl`, the LD50 was 236 mg/kg.
As for `COP(=O)(OC1CCCCC1)SC` (configuration not stated), the LD50 is 240 mg/kg.
`COc1nc(Cl)nc(OC)n1`: the LD50 was 870 mg/kg.
Take `CCOC(=S)C=Cc1ccc2c(c1)OCO2`: the LD50 is 940 mg/kg.
As to `CCCCOC(=O)c1c[n+](C)c2n(c1=O)C(C)CCC2` (configuration not stated), the LD50 is 1370 mg/kg.
As to `CCCCn1c(=O)n(CCC)c(=O)c2[nH]c(C)nc21`, the LD50 is 15 mg/kg.
As to `CC(C(=O)OCCCS(=O)(=O)O)c1ccc(-c2ccccc2)cc1` (configuration not stated), the LD50 is 280 mg/kg.
Turning to `COc1ccc([N+](=O)[O-])cc1CNCCO`, the LD50 was 30 mg/kg.
For the compound `Cn1c([N+](=O)[O-])cnc1/C=C/c1ccnc(N)n1`, the LD50 is 7600 mg/kg.
Consider `O=c1[nH]c2c(Cl)c(Cl)c(Cl)cc2o1`, for which the LD50 is 1000 mg/kg.
`C[N+](C)([O-])c1ccc(N=Nc2ccccc2)cc1`: the median lethal dose (LD50) is 2200 mg/kg.
Turning to `O=[N+]([O-])C(CO)(CO)CO`, the LD50 is 1900 mg/kg.
For the compound `CC(=O)Nc1ccc(OC(=O)c2ccccc2OC(C)=O)cc1`, the LD50 was 3500 mg/kg.
With `CCN1C=CC(=C2C(=O)c3ccccc3C2=O)C=C1`, the LD50 is 330 mg/kg.
In the case of `CCC(C(=O)O)c1ccc(CC(C)C)cc1` (configuration not stated), the LD50 is 1600 mg/kg.
As to `CC(=O)OCCC(C)CCC=C(C)C` (configuration not stated), the LD50 was 6800 mg/kg.
Turning to `CC(C)(Oc1ccc(CCNC(=O)c2ccc(Cl)cc2)cc1)C(=O)O`, the LD50 was 1080 mg/kg.
Take `O=C(OC1CCC(N2CCCCC2)CC1)C1CCCCC1` (configuration not stated): the LD50 is 2500 mg/kg.
For `CSC(C)(C)C=NOC(=O)N(C)SN(C)Cc1ccccc1`, the LD50 was 9.4 mg/kg.
As for `CCCCOC(=O)/C=C/C(=O)OCCCC`, the LD50 is 8530 mg/kg.
As to `Cc1c2ccccc2c(C)c2c1ccc1ccccc12`, the LD50 was 327 mg/kg.
Regarding `COP(=O)(SC)SC`, the LD50 was 26 mg/kg.
`CC(CN(CCN(CC(C)OB(O)O)CC(C)OB(O)O)CC(C)OB(O)O)OB(O)O` (configuration not stated): the LD50 was 4930 mg/kg.
Consider `CCSP(=O)(OC)SCC`, for which the median lethal dose (LD50) was 158 mg/kg.
As for `ClC(Cl)C(Cl)C(Cl)C(Cl)Cl` (configuration not stated), the LD50 is 400 mg/kg.
Consider `CCCOP(=S)(OCCC)SCC(=O)N1CCCCC1C` (configuration not stated), for which the LD50 was 324 mg/kg.
For the compound `Cc1cccc(C)n1`, the LD50 was 400 mg/kg.
`CC(C)(C)C(=O)COc1ccc(Cl)cc1`: the 50% lethal dose (LD50) was 4650 mg/kg.
Regarding `Nc1ccc(-c2ccccc2N)cc1`, the LD50 is 311 mg/kg.
With `OCC1COC(c2ccccc2)O1` (configuration not stated), the LD50 is 3150 mg/kg.
Regarding `CCCCOC(=O)N(C)SN(C)C(=O)Oc1cccc2c1OC(C)(C)C2`, the LD50 is 53 mg/kg.
On to `CN(C)CCC1(c2ccccc2)C=Cc2ccccc21` (configuration not stated), for which the LD50 is 385 mg/kg.
Regarding `NCCNCCNCCN`, the LD50 was 2500 mg/kg and 2280 mg/kg.
Consider `C[N+]1(CCCl)CCCO1` (configuration not stated), for which the LD50 was 3 mg/kg.
For the compound `CN1CCN(C2=Nc3cc(Cl)ccc3Nc3ccccc32)CC1`, the LD50 was 251 mg/kg.
As for `O=c1c2ccccc2n(-c2cccc(C(F)(F)F)c2)c(=O)n1CCO`, the median lethal dose (LD50) is 810 mg/kg.
With `CCC(C)c1ccc(OC(=O)NC)cc1` (configuration not stated), the median lethal dose (LD50) is 44 mg/kg.
Turning to `CCC(OC(C)=O)C(CC(C)NC)(c1ccccc1)c1ccccc1` (configuration not stated), the LD50 is 44 mg/kg.
In the case of `C[C@@H]1CC=CC=CC=CC=C[C@H](O[C@@H]2O[C@H](C)[C@@H](O)[C@H](N)[C@@H]2O)C[C@@H]2O[C@](O)(C[C@@H](O)C[C@H]3O[C@@H]3C=CC(=O)O1)C[C@H](O)[C@H]2C(=O)O`, the LD50 is 2730 mg/kg.
With `NS(=O)(=O)c1cc2c(cc1Cl)CN(C1CCCCC1)C2=O`, the LD50 was 6000 mg/kg.
`O=C(Nc1nc(-c2ccccc2)cs1)OCC(Cl)(Cl)Cl`: the LD50 is 550 mg/kg.
In the case of `CCCCCC(=O)c1ccc(N)cc1`, the LD50 was 216 mg/kg.
Take `CCCN(CCC)S(=O)(=O)c1ccc(C(=O)O)cc1`: the LD50 is 1600 mg/kg.
For the compound `CC(C)(C)[C@H](O)/C(=C\c1ccc(Cl)cc1)n1cncn1`, the LD50 is 430 mg/kg.
For `CN(C)N=Nc1nc[nH]c1C(N)=O`, the LD50 was 2150 mg/kg.
Turning to `Cc1cc(C(=O)c2ccccc2)ccc1N=Cc1cccc(OCCC(C)C)c1`, the LD50 is 2100 mg/kg.
Take `O=C(O)C1C(C(=O)O)C2(Cl)C(Cl)=C(Cl)C1(Cl)C2(Cl)Cl` (configuration not stated): the LD50 is 1770 mg/kg.
As for `CCN(CC)CC#CC(C)(C)OC(=O)C(O)(c1ccccc1)C1CCCCC1` (configuration not stated), the LD50 is 735 mg/kg.
As for `O=C(O)CCC(=O)c1ccc2oc3ccccc3c2c1`, the LD50 is 1280 mg/kg.
For the compound `CCCOCCOC(=O)C1=C(C)NC(C)=C(C(=O)OCCOCCC)C1c1cccc([N+](=O)[O-])c1`, the LD50 was 1470 mg/kg.
Take `COc1ccccc1NC(=O)CC(=O)c1ccccc1`: the LD50 is 1600 mg/kg.
For `CCOC(=O)C(C)Oc1ccc(Oc2nc3ccc(Cl)cc3s2)cc1` (configuration not stated), the LD50 is 907 mg/kg.
As to `C1CCc2nnnn2CC1`, the LD50 is 140 mg/kg.
Turning to `CON(C(=O)CSP(=S)(OC)OC)C(C)C`, the LD50 is 260 mg/kg.
Consider `Oc1ccc(C2=CCCCC2)cc1`, for which the LD50 was 2830 mg/kg.
For `O=C(O)C(F)(F)C(F)(F)C(F)(F)C(F)(F)C(F)(F)C(F)(F)C(F)(F)C(F)(F)C(F)(F)F`, the LD50 is 57 mg/kg.
`N#CN=c1ccccn1Cc1ccc(Cl)cc1`: the LD50 is 500 mg/kg.
Consider `CC[C@@]1(O)C[N@@]2CC[C@H]1C[C@@H]2[C@@H](O)c1ccnc2ccc(OC)cc12`, for which the LD50 is 600 mg/kg.
Consider `COc1ccc(-c2noc(CC(=O)O)c2-c2ccc(OC)cc2)cc1`, for which the LD50 is 887 mg/kg.
In the case of `Nc1ccc(N)cc1`, the LD50 was 80 mg/kg and 147 mg/kg.
With `CCOC1CC(C)C=CO1` (configuration not stated), the LD50 is 3400 mg/kg.
For the compound `CC[N+]1(CC)CCCO1`, the LD50 was 150 mg/kg.
As to `CC(C)NC1Cc2ccccc2Cc2ccccc21` (configuration not stated), the LD50 was 500 mg/kg.
Regarding `COc1c(OC)c(Cl)c2[nH]c(C(F)(F)F)nc2c1Cl`, the LD50 is 100 mg/kg.
As for `CCN(CCC#N)c1ccccc1`, the LD50 is 4840 mg/kg.
`CC(C)(S)C(N)C(=O)O` (racemic): the LD50 is 365 mg/kg.
For `CN(C)CCCN`, the LD50 is 1870 mg/kg.
Regarding `Cc1ccc(C(=O)c2ccc(CC(=O)N3CCN(C)CC3)n2C)cc1`, the LD50 is 1000 mg/kg.
Consider `OCCc1ccncc1`, for which the LD50 is 3500 mg/kg.
As for `CNS(=O)(=O)c1cc(Cl)c(Cl)cc1Cl`, the LD50 is 5100 mg/kg.
For `COP(=S)(OC)SCn1nc(Br)ccc1=O`, the LD50 is 3.75 mg/kg.
In the case of `CCCCCCCCCCCC[N+](C)(C)Cc1ccc(Cl)c(Cl)c1`, the LD50 is 730 mg/kg.
In the case of `OC1CCCc2ccccc21` (configuration not stated), the LD50 is 1620 mg/kg.
For `Cc1c(C(C)C)c(=O)n(-c2ccccc2)n1C`, the LD50 was 860 mg/kg.
Consider `CCNCc1cc([N+](=O)[O-])ccc1O`, for which the LD50 is 1010 mg/kg.
Regarding `CC1(CO)CN(c2ccccc2)NC1=O` (configuration not stated), the LD50 is 566 mg/kg.
Take `COP(=S)(OC)Oc1ccc(SC)c(C)c1`: the LD50 was 180 mg/kg.
For the compound `O=C(O)C1CC=CCC1` (configuration not stated), the LD50 was 4260 mg/kg.
Regarding `O=C1C[C@@H]2OCC=C3CN4CC[C@]56c7ccccc7N1[C@H]5[C@H]2[C@H]3C[C@H]46`, the LD50 is 16.2 mg/kg.
Regarding `CCCN1C[C@H](CSC)C[C@@H]2c3cccc4[nH]cc(c34)C[C@H]21`, the LD50 is 8.4 mg/kg.
`NCCOCCO`: the LD50 was 3000 mg/kg.
With `C=C1/C(=C\C=C2/CCC[C@]3(C)[C@@H]([C@H](C)CCCC(C)(C)O)CC[C@@H]23)C[C@@H](O)C[C@@H]1O`, the LD50 is 0.62 mg/kg.
As for `N#CSCCSC#N`, the LD50 is 50 mg/kg.
Regarding `C=CCOC(=O)CCC`, the LD50 is 250 mg/kg.
Take `C=CCOC(=O)CC1CCCCC1`: the LD50 is 900 mg/kg.
On to `COC(=O)C[N+](=O)[O-]`, for which the LD50 is 3770 mg/kg.
With `CC(C)(O)Cc1ccccc1`, the LD50 was 1280 mg/kg.
As for `C1=CCC=C1`, the LD50 was 113 mg/kg.
`NC(=O)OC(CCl)Cc1ccccc1` (configuration not stated): the LD50 was 490 mg/kg.
In the case of `FC(F)(F)c1nc2cc(Br)c(Cl)cc2[nH]1`, the LD50 is 9.04 mg/kg.
With `COP(=S)(OC)Oc1cc(C)n(C)c(=O)c1`, the LD50 is 0.812 mg/kg.
Turning to `CNC(=O)Oc1ccc(N=CN(C)C)c(C)c1`, the LD50 is 7.2 mg/kg.
Regarding `CN(N=Nc1ccccc1)N=Nc1ccccc1`, the LD50 is 212 mg/kg.
Consider `OCCSSCCO`, for which the LD50 was 173 mg/kg.
For `O=C/C=C/O`, the LD50 is 824 mg/kg.
With `N=C(N)NC(=O)Cc1c(Cl)cccc1Cl`, the LD50 is 142 mg/kg.
Consider `COc1ccc2c(c1)c(CC(=O)OCOC(=O)c1cccc(C)c1)c(C)n2C(=O)c1ccc(Cl)cc1`, for which the LD50 was 106 mg/kg.
For the compound `CCOP(=S)(OCC)Oc1ccc(=O)n(-c2ccccc2)n1`, the LD50 was 424 mg/kg.
For the compound `COP(=S)(OC)SC(CC(=O)OC(C)C)C(=O)OC(C)C` (configuration not stated), the LD50 was 4000 mg/kg.
As for `CCOC(C1=NCC(C)(C)CN1)c1ccccc1Cl` (configuration not stated), the LD50 was 310 mg/kg.
Take `CCCCCCCCCCCC[n+]1ccc2ccccc2c1`: the LD50 was 230 mg/kg.
Turning to `CCOC(C1=NCC(C)(CC)CN1)c1ccc(Cl)cc1` (configuration not stated), the LD50 is 110 mg/kg.
Take `Nc1ncc2[nH]cnc2n1`: the LD50 was 723 mg/kg.
With `Cc1ncsc1C`, the LD50 was 960 mg/kg.
For the compound `COP(=O)(OC)OC(C)=CC(=O)Oc1ccc(C)cc1`, the LD50 was 176 mg/kg.
As for `Cc1cc(-c2ccccc2)n[nH]1`, the LD50 was 1800 mg/kg.
On to `Sc1c(Cl)c(Cl)c(Cl)c(Cl)c1Cl`, for which the LD50 was 11900 mg/kg.
For the compound `CCOC(=O)C(SP(=O)(OC)SC)c1ccccc1` (configuration not stated), the LD50 is 250 mg/kg.
Turning to `C=COC(=O)CCC`, the LD50 was 8530 mg/kg.
Turning to `CC1(C)Cc2cccc(OC(=O)NCSc3ccc(Cl)cc3)c2O1`, the LD50 is 25 mg/kg.
With `Cc1ccc(C(C)C=O)cc1` (configuration not stated), the LD50 was 3500 mg/kg.
As for `CC=CC(=O)O`, the LD50 is 1000 mg/kg.
In the case of `N#CCC(=O)c1ccc(N)cc1`, the LD50 was 2260 mg/kg.
Consider `CN(C)CCN(CCN(C)C)n1cc(-c2ccccc2)c2ccccc21`, for which the 50% lethal dose (LD50) is 1250 mg/kg.
Consider `CC(C)(S)[C@@H](N)C(=O)O`, for which the LD50 is 6170 mg/kg.
Turning to `Nc1c(S(=O)(=O)O)cc(Nc2ccc(S(=O)(=O)O)c(Nc3nc(Cl)nc(Cl)n3)c2)c2c1C(=O)c1ccccc1C2=O`, the LD50 is 8980 mg/kg.
